pIC50: −log10 of the molar value.
Legend:
[1] = target: T1, Purified recombinant ADAMTS-7 (rat prodomain/human catalytic domain, SEQ ID No. 01 or 02) (Homo sapiens, UniProt Q9UKP4); test: Assay for ADAMTS-7 enzymatic activity (FRET substrate cleavage); type: biochemical; conditions: FRET substrate SEQ ID No. 11, 120 min at 32° C.; read-out: ADAMTS7-IC50
T1 construct: rat ADAMTS-7 signal peptide + prodomain (rat 1-217, Q1EHB3) (N); 2xStrep tag (C); 6xHis tag (C); made in house; host or cells: Expi293 cells
T1 sequence (Q9UKP4 237-537): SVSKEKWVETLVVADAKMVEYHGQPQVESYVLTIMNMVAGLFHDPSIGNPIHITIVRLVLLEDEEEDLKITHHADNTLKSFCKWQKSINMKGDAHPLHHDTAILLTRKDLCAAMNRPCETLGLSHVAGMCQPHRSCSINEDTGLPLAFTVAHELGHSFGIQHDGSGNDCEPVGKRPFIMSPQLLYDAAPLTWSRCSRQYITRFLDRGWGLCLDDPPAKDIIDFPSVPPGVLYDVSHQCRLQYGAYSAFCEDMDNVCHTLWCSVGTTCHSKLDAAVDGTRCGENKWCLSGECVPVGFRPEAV
Summary of the method: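 About 20 nM enzyme in 20 mM HEPES pH 8.0, 150 mM NaCl, 5 mM CaCl2, 0.004% Brij and 10 μM ZnCl2 was mixed with compound in DMSO and a QXL520-quenched FRET peptide from thrombospondin-1 (275-289). After 120 min at 32 °C, fluorescence was read at 485/520 nm. IC50 came from percent inhibition versus concentration.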

ADAMTS4 = target: T2, ADAMTS4 (Homo sapiens, UniProt O75173); test: Selectivity assay for ADAMTS-7 modulators (FRET), ADAMTS4; type: biochemical; conditions: 50 nM enzyme (R&D 4307-AD), 1 μM Dabcyl/Edans FRET substrate, 120 min at 32° C.
T2 construct: purchased R&D 4307-AD
T2 sequence (O75173 213-685 limits assumed): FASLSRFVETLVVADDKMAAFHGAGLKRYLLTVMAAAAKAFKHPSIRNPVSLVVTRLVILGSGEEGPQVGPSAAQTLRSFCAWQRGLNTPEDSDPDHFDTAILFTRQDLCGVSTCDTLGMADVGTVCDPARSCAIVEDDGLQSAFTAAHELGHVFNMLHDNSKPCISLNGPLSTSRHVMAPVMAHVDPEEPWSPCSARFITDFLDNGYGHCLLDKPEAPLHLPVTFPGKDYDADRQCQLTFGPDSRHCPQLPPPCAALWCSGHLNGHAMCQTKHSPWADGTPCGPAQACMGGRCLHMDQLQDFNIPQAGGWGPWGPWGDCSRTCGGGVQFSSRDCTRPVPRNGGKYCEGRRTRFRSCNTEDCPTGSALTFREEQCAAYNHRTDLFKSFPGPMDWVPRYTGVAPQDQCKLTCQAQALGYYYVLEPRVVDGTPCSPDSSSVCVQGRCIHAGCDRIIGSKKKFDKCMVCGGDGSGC
Summary of the method: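 Enzyme in 50 mM Tris pH 7.5, 150 mM NaCl, 10 mM CaCl2, 0.05% Brij, preincubated with compound in DMSO; reaction started with FRET substrate. Fluorescence increase read after 120 min at 32° C; IC50 from percent inhibition versus compound concentration.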

SMILES	pIC50 [1]	pIC50 (ADAMTS4)
CC(C)C1(CNC(=O)c2cnn(-c3ccc(F)cc3)n2)NC(=O)NC1=O (stereo not drawn) [Example 76, ent-N-[(2,5-dioxo-4-(propan-2-yl)imidazolidin-4-yl)methyl]-2-(4-fluorophenyl)-2H-1,2,3-triazole-4-carboxamide]	8.10	5.56
O=C1NC(=O)C(CNC(=O)c2cnn(-c3ccc(F)cc3)n2)(C2CCC2)N1 (stereo not drawn) [Example 77, ent-N-[(4-cyclobutyl-2,5-dioxoimidazolidin-4-yl)methyl]-2-(4-fluorophenyl)-2H-1,2,3-triazole-4-carboxamide]	7.62	5.36
O=C1NC(=O)C(CNC(=O)c2cnn(-c3ccccc3)n2)(C2CCC2)N1 (stereo not drawn) [Example 79, ent-N-[(4-cyclobutyl-2,5-dioxoimidazolidin-4-yl)methyl]-2-phenyl-2H-1,2,3-triazole-4-carboxamide]	7.11	4.96
O=C1NC(=O)C(CNC(=O)c2cnn(-c3ccccc3)n2)(C2CCCC2)N1 (stereo not drawn) [Example 83, ent-N-[(4-cyclopentyl-2,5-dioxoimidazolidin-4-yl)methyl]-2-phenyl-2H-1,2,3-triazole-4-carboxamide]	6.92	4.96
O=C1NC(=O)C(CNC(=O)c2cnn(-c3cccc(F)c3)n2)(C2CCC2)N1 (stereo not drawn) [Example 93, ent-N-[(4-cyclobutyl-2,5-dioxoimidazolidin-4-yl)methyl]-2-(3-fluorophenyl)-2H-1,2,3-triazole-4-carboxamide]	8.10	5.66
O=C1NC(=O)C(CNC(=O)c2cnn(-c3ccc(F)c(F)c3)n2)(C2CCC2)N1 (stereo not drawn) [Example 94, ent-N-[(4-cyclobutyl-2,5-dioxoimidazolidin-4-yl)methyl]-2-(3,4-difluorophenyl)-2H-1,2,3-triazole-4-carboxamide]	8.22	6.05
O=C1NC(=O)[C@](CNC(=O)c2cnn(-c3cc(F)c(F)c(F)c3)n2)(C2CC2)N1 [Example 98, N-{[(4R)-4-cyclopropyl-2,5-dioxoimidazolidin-4-yl]methyl}-2-(3,4,5-trifluorophenyl)-2H-1,2,3-triazole-4-carboxamide]	7.60	5.96
O=C1NC(=O)C(CNC(=O)c2cnn(-c3ccc(F)cc3)n2)(c2nccs2)N1 (stereo not drawn) [Example 114, ent-N-{[2,5-dioxo-4-(1,3-thiazol-2-yl)imidazolidin-4-yl]methyl}-2-(4-fluorophenyl)-2H-1,2,3-triazole-4-carboxamide]	7.82	5.85
CC(C)C1(CNC(=O)c2cnn(-c3cc(F)c(F)c(F)c3)n2)NC(=O)NC1=O (stereo not drawn) [Example 117, ent-N-[(4-isopropyl-2,5-dioxoimidazolidin-4-yl)methyl]-2-(3,4,5-trifluorophenyl)-2H-1,2,3-triazole-4-carboxamide]	7.70	5.48
O=C1NC(=O)[C@](CNC(=O)c2cnn(-c3cnsc3)n2)(C2CC2)N1 [Example 132, N-{[(4R)-4-cyclopropyl-2,5-dioxoimidazolidin-4-yl]methyl}-2-(1,2-thiazol-4-yl)-2H-1,2,3-triazole-4-carboxamide]	6.64	5.13
O=C1NC(=O)[C@](CNC(=O)c2cnn(-c3ncc(F)cc3F)n2)(C2CC2)N1 [Example 134, N-{[(4R)-4-cyclopropyl-2,5-dioxoimidazolidin-4-yl]methyl}-2-(3,5-difluoropyridin-2-yl)-2H-1,2,3-triazole-4-carboxamide]	6.72	5.21
O=C1NC(=O)C(CNC(=O)c2cnn(-c3ccc(F)cc3)n2)(c2ncsc2C(F)(F)F)N1 (stereo not drawn) [Example 136, ent-N-({2,5-dioxo-4-[5-(trifluoromethyl)-1,3-thiazol-4-yl]imidazolidin-4-yl}methyl)-2-(4-fluorophenyl)-2H-1,2,3-triazole-4-carboxamide]	7.57	5.46
Cn1ccnc1C1(CNC(=O)c2cnn(-c3ccccc3)n2)NC(=O)NC1=O (stereo not drawn) [Example 142, ent-N-{[4-(1-methyl-1H-imidazol-2-yl)-2,5-dioxoimidazolidin-4-yl]methyl}-2-phenyl-2H-1,2,3-triazole-4-carboxamide]	8.40	6.49

Further compounds by rising pIC50 [1], results first:

pIC50 [1]	pIC50 (ADAMTS4)	SMILES
6.60	5.54	O=C1NC(=O)C(CNC(=O)c2nc(-c3ccccc3)no2)(CC2CC2)N1 (stereo not drawn) [Example 80, ent-N-[(4-(cyclopropylmethyl)-2,5-dioxoimidazolidin-4-yl)methyl]-3-phenyl-1,2,4-oxadiazole-5-carboxamide]
6.72	4.72	CCCCC1(CNC(=O)c2cnn(-c3ccccc3)n2)NC(=O)NC1=O (stereo not drawn) [Example 78, ent-N-[(4-butyl-2,5-dioxoimidazolidin-4-yl)methyl]-2-phenyl-2H-1,2,3-triazole-4-carboxamide]
6.72	4.96	O=C1NC(=O)[C@](CNC(=O)c2cnn(-c3nc4ccccc4s3)n2)(C2CC2)N1 [Example 105, 2-(1,3-benzothiazol-2-yl)-N-{[(4R)-4-cyclopropyl-2,5-dioxoimidazolidin-4-yl]methyl}-2H-1,2,3-triazole-4-carboxamide]
6.72	< 4.30	O=C1NC(=O)[C@](CNC(=O)c2cnn(-c3ccc(OC(F)(F)F)cc3)n2)(C2CC2)N1 [Example 106, N-{[(4R)-4-cyclopropyl-2,5-dioxoimidazolidin-4-yl]methyl}-2-[4-(trifluoromethoxy)phenyl]-2H-1,2,3-triazole-4-carboxamide]
6.89	5.21	O=C1NC(=O)C(CNC(=O)c2cnn(-c3ccc(F)cc3)n2)(CC2CC2)N1 (stereo not drawn) [Example 72, ent-N-[(4-(cyclopropylmethyl)-2,5-dioxoimidazolidin-4-yl]methyl]-2-(4-fluorophenyl)-2H-1,2,3-triazole-4-carboxamide]
7.20	5.07	O=C1NC(=O)C(CNC(=O)c2cnn(-c3ccc(F)cc3F)n2)(C2CCC2)N1 (stereo not drawn) [Example 86, ent-N-{[4-cyclobutyl-2,5-dioxoimidazolidin-4-yl]methyl}-2-(2,4-difluorophenyl)-2H-1,2,3-triazole-4-carboxamide]
7.21	5.54	CCC(C)C1(CNC(=O)c2cnn(-c3ccc(F)cc3)n2)NC(=O)NC1=O (stereo not shown) [Example 102, diamix-N-[(4-sec-butyl-2,5-dioxoimidazolidin-4-yl)methyl]-2-(4-fluorophenyl)-2H-1,2,3-triazole-4-carboxamide]
7.22	5.29	CCCC1(CNC(=O)c2cnn(-c3ccc(F)cc3)n2)NC(=O)NC1=O (stereo not drawn) [Example 73, ent-N-[(2,5-dioxo-4-propylimidazolidin-4-yl)methyl]-2-(4-fluorophenyl)-2H-1,2,3-triazole-4-carboxamide]
7.32	5.51	CCCCC1(CNC(=O)c2cnn(-c3ccc(F)cc3)n2)NC(=O)NC1=O (stereo not shown) [Example 82]
7.48	5.23	O=C1NC(=O)C(CNC(=O)c2cnn(-c3ccc(F)cc3)n2)(C2CCCC2)N1 (stereo not drawn) [Example 74, ent-N-[(4-cyclopentyl-2,5-dioxoimidazolidin-4-yl)methyl]-2-(4-fluorophenyl)-2H-1,2,3-triazole-4-carboxamide]
7.80	5.51	O=C1NC(=O)C(CNC(=O)c2cnn(-c3cc(F)c(F)c(F)c3)n2)(C2CCC2)N1 (stereo not drawn) [Example 90, ent-N-[(4-cyclobutyl-2,5-dioxoimidazolidin-4-yl)methyl]-2-(3,4,5-trifluorophenyl)-2H-1,2,3-triazole-4-carboxamide]
7.85	5.39	O=C1NC(=O)C(CNC(=O)c2cnn(-c3ccc(F)cc3)n2)(C2CCCCC2)N1 (stereo not drawn) [Example 75, ent-N-[(4-cyclohexyl-2,5-dioxoimidazolidin-4-yl)methyl]-2-(4-fluorophenyl)-2H-1,2,3-triazole-4-carboxamide]
8.15	4.85	O=C1NC(=O)[C@](CNC(=O)c2cnn(-c3ncccc3F)n2)(C2CC2)N1 [Example 101, N-{[(4R)-4-cyclopropyl-2,5-dioxoimidazolidin-4-yl]methyl}-2-(3-fluoropyridin-2-yl)-2H-1,2,3-triazole-4-carboxamide]

From patent US20230027985A1, “SUBSTITUTED HYDANTOINAMIDES AS ADAMTS7 ANTAGONISTS” (Bayer Aktiengesellschaft, priority 2019, published 2023)
